Test results from article PMC12396409, “Screening and hit evaluation of a microbial metabolite library against the pathogenic Plasmodium falciparum and Toxoplasma gondii parasites” (International Journal for Parasitology: Drugs and Drug …, 2025).
Where two headings read alike, the source gives them in different places. *1 amine or outer side, *2 acyl side, *3 side chain or, on linkers, in order; H or OH if unused. Where a SMILES comes first, the peptide text is derived from it. Bridges are numbered along the chain shown (N, C = ends). [ ]: non-standard residue; d: D form. The star is where a group is joined. hTyr(3S-OH,4S-OH,3'-OSO3H) = N[C@H](C(=O)O)[C@H](O)[C@@H](O)c1ccc(O)c(OS(=O)(=O)O)c1; Orn(4R-OH,5R-OH) = O=C([C@H](C[C@@H](O)[C@@H](O)N[*:3])N[*:1])[*:2]; Pro(3S-OH,4S-Me) = C[C@H]1CN[C@H](C(=O)O)[C@H]1O; Gln(3R-OH) = NC(=O)C[C@@H](O)[C@H](N)C(=O)O; Palmitoyl = CCCCCCCCCCCCCCCC(=O)*; Hyp = O=C(O)[C@@H]1C[C@@H](O)CN1

How the values were obtained:
[1] = system: P. falciparum 3D7 parasites; experiment: P. falciparum growth inhibition assay, 1-cycle (72 h treatment), SYBR DNA staining (library screen at 2 μg/mL and dose-response); format: cell-based, Plasmodium falciparum; settings: for activity at 2 µg/mL: Plasmodium falciparum
[2] = system: P. falciparum 3D7 parasites; experiment: P. falciparum growth inhibition assay, 2-cycle (120 h treatment), delayed-death screen and dose-response; format: cell-based, Plasmodium falciparum; settings: for activity at 2 µg/mL: Plasmodium falciparum
[3] = system: T. gondii RH strain (RH-Tub-eYFP) tachyzoites; experiment: microbe, parasite or virus in culture; format: cell-based, Toxoplasma gondii; settings: for percent parasite growth at 2 µg/mL: Toxoplasma gondii; for percent parasite growth at 2 µg/mL / Tg_72h_%Growth_Rep1 / Tg_72h_%Growth_Rep2: 72 h
[4] = T. gondii, screen at 2 μg/mL, replicate 1, read-out: Tg_72h_%Growth_Rep1
[5] = T. gondii, screen at 2 μg/mL, replicate 2, read-out: Tg_72h_%Growth_Rep2
[6] = library screen at 2 μg/mL, 72 h, % growth, replicate 1
[7] = library screen at 2 μg/mL, 72 h, % growth, replicate 2
[8] = library screen at 2 μg/mL, 120 h, % growth, replicate 1
[9] = library screen at 2 μg/mL, 120 h, % growth, replicate 2
[10] = library screen at 2 μg/mL, % growth, replicate 1
[11] = library screen at 2 μg/mL, % growth, replicate 2
[12] = P. falciparum, 72 h, screen at 2 μg/mL, replicate 1
[13] = P. falciparum, 72 h, screen at 2 μg/mL, replicate 2
[14] = P. falciparum, 120 h, screen at 2 μg/mL, replicate 1
[15] = P. falciparum, 120 h, screen at 2 μg/mL, replicate 2
[16] = T. gondii, screen at 2 μg/mL, replicate 1
[17] = T. gondii, screen at 2 μg/mL, replicate 2
[18] = 3D7, P. falciparum, 72 h, screen at 2 μg/mL, replicate 1, read-out: Pf_72h_%Growth_Rep1
[19] = 3D7, P. falciparum, 72 h, screen at 2 μg/mL, replicate 2, read-out: Pf_72h_%Growth_Rep2
[20] = 3D7, P. falciparum, 120 h, screen at 2 μg/mL, replicate 1, read-out: Pf_120h_%Growth_Rep1
[21] = 3D7, P. falciparum, 120 h, screen at 2 μg/mL, replicate 2, read-out: Pf_120h_%Growth_Rep2
[22] = active against the parasite at 2 μg/mL, no anti-tumour (NS-1) or cytotoxic (fibroblast) activity at 5 μg/mL

O=C(O)/C=C/c1ccc(O)c(O)c1 [Caffeic acid]
activity at 2 µg/mL ([1]; 3D7, 72 h, P. falciparum, 72 h, screen at 2 μg/mL, replicate 1, read-out: Pf_72h_%Growth_Rep1): 83.7%
activity at 2 µg/mL ([1]; 3D7, 72 h, P. falciparum, 72 h, screen at 2 μg/mL, replicate 2, read-out: Pf_72h_%Growth_Rep2): 86%
activity at 2 µg/mL ([2]; 3D7, 120 h, P. falciparum, 120 h, screen at 2 μg/mL, replicate 1, read-out: Pf_120h_%Growth_Rep1): 144%
activity at 2 µg/mL ([2]; 3D7, 120 h, P. falciparum, 120 h, screen at 2 μg/mL, replicate 2, read-out: Pf_120h_%Growth_Rep2): 88.4%
percent parasite growth at 2 µg/mL [3, 4]: 101%
percent parasite growth at 2 µg/mL [3, 5]: 88.3%

CC[C@H](C)[C@H]1O[C@]2(C=C[C@@H]1C)C[C@@H]1C[C@@H](C/C=C(\C)[C@@H](O[C@H]3C[C@H](OC)[C@@H](O[C@H]4C[C@H](OC)[C@H](NC)[C@H](C)O4)[C@H](C)O3)[C@@H](C)/C=C/C=C3\CO[C@@H]4[C@H](O)C(C)=C[C@@H](C(=O)O1)[C@]34O)O2 [Emamectin B1a]
Pf_72h_%Growth_Rep1 [1, 6]: 2.12%
Pf_72h_%Growth_Rep2 [1, 7]: 0.39%
Pf_120h_%Growth_Rep1 [2, 8]: 3.81%
Pf_120h_%Growth_Rep2 [2, 9]: 6.54%
Tg_72h_%Growth_Rep1 [3, 10]: 22.56%
Tg_72h_%Growth_Rep2 [3, 11]: 92.26%

CN[C@@H]1C[C@H]2O[C@@](C)([C@@H]1OC)n1c3ccccc3c3c4c(c5c6ccccc6n2c5c31)C(=O)N[C@H]4O [UCN-01]
Pf_72h_%Growth_Rep1 [1, 12]: 0.68%
Pf_72h_%Growth_Rep2 [1, 13]: -0.50%
Pf_120h_%Growth_Rep1 [2, 14]: 24.61%
Pf_120h_%Growth_Rep2 [2, 15]: 12.22%
Tg_72h_%Growth_Rep1 [3, 16]: 1.44%
Tg_72h_%Growth_Rep2 [3, 17]: 1.53%

CCCCCCCCCCCCCCCC(=O)N[C@H]1C[C@@H](O)[C@@H](O)NC(=O)[C@@H]2[C@@H](O)[C@@H](C)CN2C(=O)[C@H]([C@H](O)CC(N)=O)NC(=O)[C@H]([C@H](O)[C@@H](O)c2ccc(O)c(OS(=O)(=O)O)c2)NC(=O)[C@@H]2C[C@@H](O)CN2C(=O)[C@H]([C@@H](C)O)NC1=O [FR 901379] (Palmitoyl-[Orn(4R-OH,5R-OH)]T[Hyp][hTyr(3S-OH,4S-OH,3'-OSO3H)][Gln(3R-OH)][Pro(3S-OH,4S-Me)]; lactam 1-C)
Pf_72h_%Growth_Rep1 [1, 6]: 84.19%
Pf_72h_%Growth_Rep2 [1, 7]: 83.86%
Pf_120h_%Growth_Rep1 [2, 8]: 96.37%
Pf_120h_%Growth_Rep2 [2, 9]: 99.58%
Tg_72h_%Growth_Rep1 [3, 10]: 119.40%
Tg_72h_%Growth_Rep2 [3, 11]: 105.49%

CCc1cc(O)cc(O)c1C(=O)O[C@H]1[C@H](O)[C@H](OC)[C@H](OC/C2=C\C=C\C[C@H](O)/C(C)=C/[C@H](CC)[C@@H](O[C@@H]3OC(C)(C)[C@@H](OC(=O)C(C)C)[C@H](O)[C@@H]3O)/C(C)=C/C(C)=C/C[C@@H]([C@@H](C)O)OC2=O)O[C@@H]1C [Didechlorofidaxomicin]
Pf_72h_%Growth_Rep1 [1, 6]: 4.39%
Pf_72h_%Growth_Rep2 [1, 7]: 6.69%
Pf_120h_%Growth_Rep1 [2, 8]: 14.52%
Pf_120h_%Growth_Rep2 [2, 9]: 29.62%
Tg_72h_%Growth_Rep1 [3, 10]: 110.91%
Tg_72h_%Growth_Rep2 [3, 11]: 90.14%

COC1=C2C[C@@H](C)C[C@H](OC)[C@H](O)[C@@H](C)/C=C(\C)[C@H](OC(N)=O)[C@@H](OC)/C=C\C=C(/C)C(=O)NC(=CC1=O)C2=O [Geldanamycin]
activity at 2 µg/mL ([1]; 3D7, library screen at 2 μg/mL, 72 h, % growth, replicate 1, read-out: Pf_72h_%Growth_Rep1): 5.26%
activity at 2 µg/mL ([1]; 3D7, library screen at 2 μg/mL, 72 h, % growth, replicate 2, read-out: Pf_72h_%Growth_Rep2): 2.63%
activity at 2 µg/mL ([2]; 3D7, library screen at 2 μg/mL, 120 h, % growth, replicate 1, read-out: Pf_120h_%Growth_Rep1): 25.5%
activity at 2 µg/mL ([2]; 3D7, library screen at 2 μg/mL, 120 h, % growth, replicate 2, read-out: Pf_120h_%Growth_Rep2): 11.8%
percent parasite growth at 2 µg/mL ([3]; library screen at 2 μg/mL, % growth, replicate 1, read-out: Tg_72h_%Growth_Rep1): 24.8%
percent parasite growth at 2 µg/mL ([3]; library screen at 2 μg/mL, % growth, replicate 2, read-out: Tg_72h_%Growth_Rep2): 24.3%

CC[C@H]1OC(=O)C[C@@H](O)[C@H](C)[C@@H](O[C@@H]2O[C@H](C)[C@@H](O)[C@H](N(C)C)[C@H]2O)[C@@H](CCN2CCCCC2)C[C@@H](C)C(=O)/C=C/C(C)=C/[C@@H]1CN1CCCCC1 [Tildipirosin]
activity at 2 µg/mL [1, 18]: 10.8%
activity at 2 µg/mL [1, 19]: 5.94%
activity at 2 µg/mL [2, 20]: 9.99%
activity at 2 µg/mL [2, 21]: 11.7%
percent parasite growth at 2 µg/mL ([3]; read-out: Tg_72h_%Growth_Rep1): 87.8%
percent parasite growth at 2 µg/mL ([3]; read-out: Tg_72h_%Growth_Rep2): 85.6%

CCCCCCCCCCCCCC(=O)N[C@H]1CCOC1=O [Tetradecanoyl-L-homoserine lactone]
Pf_72h_%Growth_Rep1 [1, 12]: 70.00%
Pf_72h_%Growth_Rep2 [1, 13]: 83.15%
Pf_120h_%Growth_Rep1 [2, 14]: 140.07%
Pf_120h_%Growth_Rep2 [2, 15]: 68.40%
Tg_72h_%Growth_Rep1 [3, 16]: 91.68%
Tg_72h_%Growth_Rep2 [3, 17]: 91.92%

Cc1cc(O)c(C)c(O)c1C(=O)O [BIA-M1661]
Pf_72h_%Growth_Rep1 ([1]; P. falciparum 3D7, 72 h, parasite screen at 2 μg/mL, % growth, replicate 1): 76.46%
Pf_72h_%Growth_Rep2 ([1]; P. falciparum 3D7, 72 h, parasite screen at 2 μg/mL, % growth, replicate 2): 83.29%
Pf_120h_%Growth_Rep1 ([2]; P. falciparum 3D7, 120 h, parasite screen at 2 μg/mL, % growth, replicate 1): 67.73%
Pf_120h_%Growth_Rep2 ([2]; P. falciparum 3D7, 120 h, parasite screen at 2 μg/mL, % growth, replicate 2): 68.25%
Tg_72h_%Growth_Rep1 ([3]; T. gondii, parasite screen at 2 μg/mL, % growth, replicate 1): 153.94%
Tg_72h_%Growth_Rep2 ([3]; T. gondii, parasite screen at 2 μg/mL, % growth, replicate 2): 85.55%

Nc1ncnc2c1ncn2[C@@H]1O[C@H](C[C@@H](N)CC[C@H](N)C(=O)O)[C@@H](O)[C@H]1O [sinefungin, reference compound]
activity at 2 µg/mL ([1]; 3D7, P. falciparum, 72 h, parasite screen 2 μg/mL, % growth, replicate 1, read-out: Pf_72h_%Growth_Rep1): 17.1%
activity at 2 µg/mL ([1]; 3D7, P. falciparum, 72 h, parasite screen 2 μg/mL, % growth, replicate 2, read-out: Pf_72h_%Growth_Rep2): 12.1%
selectivity for P. falciparum in the screens [1, 22]: also active
activity at 2 µg/mL ([2]; 3D7, P. falciparum, 120 h, parasite screen 2 μg/mL, % growth, replicate 1, read-out: Pf_120h_%Growth_Rep1): 13.4%
activity at 2 µg/mL ([2]; 3D7, P. falciparum, 120 h, parasite screen 2 μg/mL, % growth, replicate 2, read-out: Pf_120h_%Growth_Rep2): -3.05%
percent parasite growth at 2 µg/mL ([3]; T. gondii, parasite screen 2 μg/mL, % growth, replicate 1, read-out: Tg_72h_%Growth_Rep1): 7.22%
percent parasite growth at 2 µg/mL ([3]; T. gondii, parasite screen 2 μg/mL, % growth, replicate 2, read-out: Tg_72h_%Growth_Rep2): 12.7%
selectivity for T. gondii in the screens [3, 22]: also active

CO[C@H]1C[C@@H]2CC[C@@H](C)[C@@](O)(O2)C(=O)C(=O)N2CCCC[C@H]2C(=O)O[C@H]([C@H](C)C[C@@H]2CC[C@H](n3cnnn3)[C@H](OC)C2)CC(=O)[C@H](C)/C=C(\C)[C@@H](O)[C@@H](OC)C(=O)[C@H](C)C[C@H](C)/C=C/C=C/C=C/1C [Zotarolimus]
activity at 2 µg/mL [1, 18]: 75.7%
activity at 2 µg/mL [1, 19]: 88.3%
activity at 2 µg/mL [2, 20]: 97.5%
activity at 2 µg/mL [2, 21]: 77.1%
percent parasite growth at 2 µg/mL [3, 4]: 120%
percent parasite growth at 2 µg/mL [3, 5]: 77.8%

COc1cc(C)c2c(c1)O[C@]1(C)Cc3cc4c(c(O)c3[C@H]2O1)C(=O)c1c(O)c(Cl)c(O)c(Cl)c1C4(C)C [Bischloroanthrabenzoxocinone]
Pf_72h_%Growth_Rep1 [1, 6]: 16.72%
Pf_72h_%Growth_Rep2 [1, 7]: 45.58%
Pf_120h_%Growth_Rep1 [2, 8]: 23.08%
Pf_120h_%Growth_Rep2 [2, 9]: 23.09%
Tg_72h_%Growth_Rep1 [3, 10]: 50.70%
Tg_72h_%Growth_Rep2 [3, 11]: 75.56%

COc1cc2c3c(c1O)-c1c(cc(O)c(OC)c1OC)CCC3N(C)CC2 (centres unmarked) [Floramultine]
Pf_72h_%Growth_Rep1 [1, 6]: 85.55%
Pf_72h_%Growth_Rep2 [1, 7]: 120.01%
Pf_120h_%Growth_Rep1 [2, 8]: 85.60%
Pf_120h_%Growth_Rep2 [2, 9]: 101.00%
Tg_72h_%Growth_Rep1 [3, 10]: 115.84%
Tg_72h_%Growth_Rep2 [3, 11]: 93.93%
